Parameters in all cases: key: + (less active); ++ (active); +++ (most active)
For one experiment, the target named is T1, SUMO (Homo sapiens, UniProt Q9UBT2).
T1 sequence (Q9UBT2 1-640): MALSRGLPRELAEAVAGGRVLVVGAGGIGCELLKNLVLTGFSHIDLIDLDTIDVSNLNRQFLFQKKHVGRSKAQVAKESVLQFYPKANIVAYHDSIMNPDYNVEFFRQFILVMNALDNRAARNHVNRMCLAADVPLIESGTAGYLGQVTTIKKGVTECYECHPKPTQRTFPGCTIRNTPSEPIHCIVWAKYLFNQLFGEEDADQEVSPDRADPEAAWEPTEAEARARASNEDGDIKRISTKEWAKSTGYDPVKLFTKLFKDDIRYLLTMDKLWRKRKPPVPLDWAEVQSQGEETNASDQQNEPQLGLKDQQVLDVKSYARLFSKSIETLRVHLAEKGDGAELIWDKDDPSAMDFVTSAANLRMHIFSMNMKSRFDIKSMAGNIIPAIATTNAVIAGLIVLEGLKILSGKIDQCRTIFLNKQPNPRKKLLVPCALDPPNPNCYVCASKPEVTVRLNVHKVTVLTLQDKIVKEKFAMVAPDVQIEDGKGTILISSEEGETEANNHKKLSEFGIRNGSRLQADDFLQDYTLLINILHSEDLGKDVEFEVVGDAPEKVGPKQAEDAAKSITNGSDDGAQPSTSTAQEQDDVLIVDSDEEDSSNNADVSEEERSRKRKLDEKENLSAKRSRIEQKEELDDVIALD
T1 sequence (Q9UBE0 1-346 partner): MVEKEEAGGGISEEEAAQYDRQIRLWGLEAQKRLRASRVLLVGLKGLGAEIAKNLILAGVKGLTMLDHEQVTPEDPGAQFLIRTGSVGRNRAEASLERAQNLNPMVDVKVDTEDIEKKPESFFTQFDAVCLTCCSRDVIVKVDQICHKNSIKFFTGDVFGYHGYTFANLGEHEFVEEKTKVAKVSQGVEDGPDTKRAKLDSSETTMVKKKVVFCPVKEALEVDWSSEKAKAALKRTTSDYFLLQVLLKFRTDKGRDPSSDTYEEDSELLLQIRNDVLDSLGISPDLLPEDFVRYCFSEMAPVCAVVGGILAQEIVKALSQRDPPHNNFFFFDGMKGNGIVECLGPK
In words: SUMO activity (Table I, biological activities). In kind it is biochemical.

The next experiment deals with T2, Atg7 (Homo sapiens, UniProt O95352).
T2 sequence (O95352 1-703): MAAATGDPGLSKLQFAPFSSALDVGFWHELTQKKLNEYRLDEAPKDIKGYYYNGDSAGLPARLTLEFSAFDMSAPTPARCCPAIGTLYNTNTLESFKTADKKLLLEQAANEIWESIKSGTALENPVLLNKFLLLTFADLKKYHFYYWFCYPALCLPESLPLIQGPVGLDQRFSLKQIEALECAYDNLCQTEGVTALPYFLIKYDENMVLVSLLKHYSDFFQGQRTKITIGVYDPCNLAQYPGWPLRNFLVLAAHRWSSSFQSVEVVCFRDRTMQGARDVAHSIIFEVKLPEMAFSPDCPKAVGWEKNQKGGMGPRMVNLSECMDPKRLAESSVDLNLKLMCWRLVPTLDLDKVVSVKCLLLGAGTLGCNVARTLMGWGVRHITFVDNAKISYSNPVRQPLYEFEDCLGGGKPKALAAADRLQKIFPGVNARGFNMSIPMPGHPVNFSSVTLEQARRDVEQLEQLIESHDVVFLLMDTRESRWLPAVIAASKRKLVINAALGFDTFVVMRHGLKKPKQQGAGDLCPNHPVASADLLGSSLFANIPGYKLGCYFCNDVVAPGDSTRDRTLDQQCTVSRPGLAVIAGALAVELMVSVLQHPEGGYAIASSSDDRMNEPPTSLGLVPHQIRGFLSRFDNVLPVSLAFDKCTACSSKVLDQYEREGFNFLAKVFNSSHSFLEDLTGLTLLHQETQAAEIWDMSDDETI
The experiment is described as follows: Atg7 activity (Table I, biological activities). In kind it is biochemical.

Another experiment has as its system c-Myc. The experiment is described as follows: c-Myc activity (Table I, biological activities).
A further experiment deals with T3, Nedd8 (Homo sapiens, UniProt Q8TBC4).
T3 sequence (Q8TBC4 1-463): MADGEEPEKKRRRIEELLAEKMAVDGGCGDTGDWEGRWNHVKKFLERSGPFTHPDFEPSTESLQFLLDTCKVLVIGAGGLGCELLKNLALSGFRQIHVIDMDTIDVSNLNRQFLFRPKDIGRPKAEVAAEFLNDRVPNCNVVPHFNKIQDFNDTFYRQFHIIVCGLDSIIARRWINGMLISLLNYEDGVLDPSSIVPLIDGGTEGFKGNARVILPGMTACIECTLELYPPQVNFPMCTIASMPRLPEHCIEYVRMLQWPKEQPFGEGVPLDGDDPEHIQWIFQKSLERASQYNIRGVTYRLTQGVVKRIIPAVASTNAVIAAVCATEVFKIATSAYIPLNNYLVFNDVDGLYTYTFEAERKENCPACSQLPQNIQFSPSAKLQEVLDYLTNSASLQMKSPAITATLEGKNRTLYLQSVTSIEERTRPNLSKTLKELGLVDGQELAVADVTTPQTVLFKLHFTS
T3 sequence (Q13564 1-534 partner): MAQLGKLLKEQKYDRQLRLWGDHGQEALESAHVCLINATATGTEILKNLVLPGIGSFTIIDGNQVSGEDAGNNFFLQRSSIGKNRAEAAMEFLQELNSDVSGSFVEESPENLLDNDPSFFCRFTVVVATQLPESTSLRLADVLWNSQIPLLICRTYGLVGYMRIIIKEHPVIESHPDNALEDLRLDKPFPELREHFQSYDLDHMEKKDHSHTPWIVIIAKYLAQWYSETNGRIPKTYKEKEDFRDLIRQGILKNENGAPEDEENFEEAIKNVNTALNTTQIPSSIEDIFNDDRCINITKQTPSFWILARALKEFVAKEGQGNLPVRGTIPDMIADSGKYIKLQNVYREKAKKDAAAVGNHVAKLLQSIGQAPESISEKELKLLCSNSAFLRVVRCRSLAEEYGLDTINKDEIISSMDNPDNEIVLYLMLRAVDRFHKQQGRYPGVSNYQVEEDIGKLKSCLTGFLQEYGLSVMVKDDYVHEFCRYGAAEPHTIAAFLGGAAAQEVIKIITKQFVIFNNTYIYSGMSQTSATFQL
The experiment is described as follows: Nedd8 activity (Table I, biological activities). In kind it is biochemical.

On to `COC(=O)C1=C(C(=O)NCCN(C)C)C2(C)C=CC1(C(Cc1ccccc1)Nc1ccccc1)O2` (stereo not drawn) [Compound 619], for which, at SUMO, the SUMO entry is reported as “++”. Also, the Atg7 result at Atg7 was “+”. For the same compound, the c-Myc entry in the experiment with c-Myc is listed as “+”.
Consider `COC(=O)C1=C(CO)C2(C)C=CC1(C(Cc1ccccc1)Oc1ccccc1)O2` (stereo not drawn) [Compound 626], for which the SUMO entry on SUMO is on record as “+”. Besides, the Atg7 result on Atg7 is given as “++”.
Consider `COC(=O)C1=C(C(=O)Nc2ccc(OC)cc2)C2C=CC1(C(Cc1ccccc1)Nc1cccc(CO)c1)O2` (stereo not drawn) [Compound 537], for which the SUMO entry at SUMO is on record as “++”. For the same compound, the Nedd8 result on Nedd8 is on record as “++”. Besides, the c-Myc entry with c-Myc is recorded as “+”.
As for `COC(=O)C1=C(CO)C2C=CC1(C(Cc1ccccc1)Oc1ccccc1)O2` (stereo not drawn) [Compound 584], on SUMO, the SUMO entry is listed as “+”. Moreover, the Atg7 entry at Atg7 is reported as “++”. In addition, in the experiment on c-Myc, the c-Myc entry was “++”.
As to `Cc1ccc(S(=O)(=O)C2=CC3(C)C=CC2(C(Cc2ccccc2)Nc2ccccc2)O3)cc1` (stereo not drawn) [Compound 531], the SUMO result at SUMO is recorded as “+”. The Nedd8 entry on Nedd8 is on record as “++”.
`COC(=O)C1=C(C(N)=O)C2C=CC1(C(Cc1ccccc1)Nc1ccc(F)cc1)O2` (stereo not drawn) [Compound 540]: at SUMO, the SUMO entry was “++”. Also, the Nedd8 result on Nedd8 is reported as “++”. In addition, the c-Myc entry with c-Myc was “++”.
On to `COC(=O)C1=C(C(=O)NC2CCN(C)CC2)C2OC1(C(Cc1ccccc1)Oc1ccccc1)C1OC21` (stereo not drawn) [Compound 541], for which, on SUMO, the SUMO entry is “++”. At Nedd8, the Nedd8 result is listed as “++”. Moreover, in the experiment with c-Myc, the c-Myc entry is recorded as “++”.
As for `COC(=O)C1=C(C(=O)NCCN2CCN(C)CC2)C2C=CC1(C(Cc1ccccc1)Nc1ccccc1)O2` (stereo not drawn) [Compound 463], the SUMO result on SUMO is reported as “++”. The Atg7 entry on Atg7 is given as “++”. Moreover, in the experiment with c-Myc, the c-Myc result is on record as “++”.
As to `CCOC(=O)C1=CC2OC1(C(c1ccccc1)N(C(=O)C(F)(F)F)c1ccccc1)c1ccccc12` (stereo not drawn) [Compound 585], the SUMO result at SUMO is on record as “+”. In addition, the Atg7 result at Atg7 is reported as “+”. Further, the c-Myc entry with c-Myc is listed as “++”.
In the case of `COC(=O)C1=C(C(=O)NCCN2CCCCC2)C2C=CC1(C(Cc1ccccc1)Nc1ccccc1)O2` (stereo not drawn) [Compound 462], the SUMO entry on SUMO is given as “++”. For the same compound, on Atg7, the Atg7 result is “++”. Moreover, the c-Myc entry with c-Myc is “++”.
As to `COC(=O)C1=C(C(=O)NCCN(C)C)C2C=CC1(C(Cc1ccccc1)Nc1c(F)cccc1F)O2` (stereo not drawn) [Compound 431], the SUMO entry at SUMO is “++”. In addition, the c-Myc entry in the experiment on c-Myc is listed as “+”.
As to `COC(=O)C1=C(C(=O)NCc2ccncc2)C2C=CC1(C(Cc1ccccc1)Nc1ccccc1)O2` (stereo not drawn) [Compound 201], on SUMO, the SUMO entry is recorded as “++”. In addition, the c-Myc entry in the experiment on c-Myc is “+”.
Consider `COC(=O)C1=C(C(=O)NNc2ccccc2)C2C=CC1(C(Cc1ccccc1)Nc1ccccc1)O2` (stereo not drawn) [Compound 200], for which the SUMO entry at SUMO is listed as “++”. Further, the c-Myc result in the experiment with c-Myc is listed as “++”.
With `COC(=O)C1=C(C(=O)NC2CCN(C(=O)OC(C)(C)C)CC2)C2C=CC1(C(Cc1ccccc1)Nc1cc(F)cc(F)c1)O2` (stereo not drawn) [Compound 242], the SUMO result at SUMO was “++”. In addition, the c-Myc result with c-Myc is “+”.
In the same order, the values of `CCN(CC)CCNC(=O)C1=C(C(=O)OC)C2(C(Cc3ccccc3)Nc3ccc(F)cc3F)C=CC1O2` (stereo not drawn) [Compound 410] are “++” and “+”.
In the same order, the values of `COC(=O)C1=C(C(=O)NCCCN(C)C)C2C=CC1(C(Cc1ccccc1)Nc1ccccc1)O2` (stereo not drawn) [Compound 389] are “++” and “+”.
For `COC(=O)C1=C(C(N)=O)C2C=CC1(C(Nc1ccccc1)C1CCC1)O2` (stereo not drawn) [Compound 179], at SUMO, the SUMO entry is “+”. Also, in the experiment with c-Myc, the c-Myc entry is “+”.
Turning to `COC(=O)C1=C(C(=O)NNc2ccccn2)C2C=CC1(C(Cc1ccccc1)Nc1ccccc1)O2` (stereo not drawn) [Compound 221], the SUMO result on SUMO was “++”. In addition, the c-Myc result in the experiment on c-Myc is “+”.
Regarding `COC(=O)C1=C(C(=O)NC2CN(C)C2)C2C=CC1(C(Cc1ccccc1)Nc1ccccc1)O2` (stereo not drawn) [Compound 492], the SUMO result on SUMO is on record as “+++”. The c-Myc entry in the experiment on c-Myc is on record as “+”.
For `COC(=O)C1=C(C(=O)NCCN2CCC2)C2C=CC1(C(Cc1ccccc1)Nc1ccccc1)O2` (stereo not drawn) [Compound 469] the same measures were “++” and “+”.
